Target: 2G12
Experiment: BioLayer Interferometry (BLI) of 2G12 binding to surface-immobilized synthetic glycopeptide
Details: Table 6; evaluated by BLI, material prepared synthetically
Description: Biotinylation of 10F2 glycopeptide and determination of 2G12 binding by BLI (BioLayer Interferometry): 200 μg 10F2 glycopeptide in 5.5 μL water was treated with […] of 50 mM TCEP.HCl/1M Tris-HCl buffer, pH 7.8, under argon, using the same inert gas setup employed in the click procedure. After 4.5 h, the reaction mixture was injected into HPLC (Waters Symmetry, 300 C4, 5 μm, 4.6×250 mm, 1 mL/min, 2-42% over 60 min, retention time 46.8 min).
The 2G12 binding of the resulting biotinylated glycopeptide 3 was determined using a BLItz instrument (Fortebio). Biotin-10F2 was loaded (120 sec) onto a streptavidin biosensor as a 500 nM solution in Buffer 1 (20 mM Tris pH 7.5, 150 mM NaCl, 2 mM MgSO4, 0.20 mg/mL BSA, 0.02% Tween-20). The sensor was washed with Buffer 1 for 60 sec, after which time the net response due to loading was observed as 0.2 nm. The sensor was then equilibrated with Buffer 2 (20 mM Tris pH 7.5, 150 mM NaCl, 2 mM MgSO4, 2.0 mg/mL BSA, 0.1% v/v Tween-20) for 90 sec. 2G12 (prepared in Buffer 2) was associated at several concentrations (0.5, 1, 2, 4, 8, 16, 32 nM, in random order) for 600 sec, followed by dissociation into blank Buffer 2 for 600 sec. […]

`CC[C@H](C)[C@H](NC(=O)[C@@H](NC(=O)[C@@H](NC(=O)[C@H](Cc1c[nH]cn1)NC(=O)[C@H](CC(N)=O)NC(=O)[C@H](CC(=O)O)NC(=O)[C@H](CCc1cn(C2CCC(OC3O[C@H](CO[C@H]4O[C@H](CO[C@H]5O[C@H](CO)[C@@H](O)[C@H](O)[C@@H]5O[C@H]5O[C@H](CO)[C@@H](O)[C@H](O)[C@@H]5O)[C@@H](O)[C@H](O[C@H]5O[C@H](CO)[C@@H](O)[C@H](O)[C@@H]5O[C@H]5O[C@H](CO)[C@@H](O)[C@H](O)[C@@H]5O)[C@@H]4O)[C@@H](O)[C@H](O[C@H]4O[C@H](CO)[C@@H](O)[C@H](O)[C@@H]4O[C@H]4O[C@H](CO)[C@@H](O)[C@H](O)[C@@H]4O[C@H]4O[C@H](CO)[C@@H](O)[C@H](O)[C@@H]4O)[C@@H]3O)CC2)nn1)NC(=O)[C@@H](NC(=O)[C@H](CCCCN)NC(=O)[C@H](CCC(=O)O)NC(=O)[C@H](CCCNC(=N)N)NC(=O)[C@H](CCCCN)NC(=O)[C@H](C)NC(=O)[C@H](CC(N)=O)NC(=O)[C@@H](NC(=O)[C@H](CCCCN)NC(=O)[C@@H](NC(=O)[C@H](C)NC(=O)[C@H](CCc1cn(C2CCC(OC3O[C@H](CO[C@H]4O[C@H](CO[C@H]5O[C@H](CO)[C@@H](O)[C@H](O)[C@@H]5O[C@H]5O[C@H](CO)[C@@H](O)[C@H](O)[C@@H]5O)[C@@H](O)[C@H](O[C@H]5O[C@H](CO)[C@@H](O)[C@H](O)[C@@H]5O[C@H]5O[C@H](CO)[C@@H](O)[C@H](O)[C@@H]5O)[C@@H]4O)[C@@H](O)[C@H](O[C@H]4O[C@H](CO)[C@@H](O)[C@H](O)[C@@H]4O[C@H]4O[C@H](CO)[C@@H](O)[C@H](O)[C@@H]4O[C@H]4O[C@H](CO)[C@@H](O)[C@H](O)[C@@H]4O)[C@@H]3O)CC2)nn1)NC=O)[C@@H](C)O)[C@@H](C)O)[C@@H](C)O)C(C)C)[C@@H](C)O)C(=O)N[C@@H](CCc1cn(C2CCC(OC3O[C@H](CO[C@H]4O[C@H](CO[C@H]5O[C@H](CO)[C@@H](O)[C@H](O)[C@@H]5O[C@H]5O[C@H](CO)[C@@H](O)[C@H](O)[C@@H]5O)[C@@H](O)[C@H](O[C@H]5O[C@H](CO)[C@@H](O)[C@H](O)[C@@H]5O[C@H]5O[C@H](CO)[C@@H](O)[C@H](O)[C@@H]5O)[C@@H]4O)[C@@H](O)[C@H](O[C@H]4O[C@H](CO)[C@@H](O)[C@H](O)[C@@H]4O[C@H]4O[C@H](CO)[C@@H](O)[C@H](O)[C@@H]4O[C@H]4O[C@H](CO)[C@@H](O)[C@H](O)[C@@H]4O)[C@@H]3O)CC2)nn1)C(=O)N[C@@H](CCCNC(=N)N)C(=O)N[C@@H](CO)C(=O)N[C@H](C(=O)N1CCC[C@H]1C(=O)N[C@@H](Cc1c[nH]c2ccccc12)C(=O)N[C@@H](Cc1ccc(O)cc1)C(=O)N[C@H](C(=O)N[C@@H](Cc1ccc(O)cc1)C(=O)N[C@@H](CCCNC(=N)N)C(=O)N[C@@H](Cc1c[nH]c2ccccc12)C(=O)N[C@@H](CC(C)C)C(=O)N1CCC[C@H]1C(=O)N[C@@H](CC(N)=O)C(=O)NCC(=O)N[C@@H](CO)C(=O)NCC(=O)N[C@@H](CO)C(=O)NCC(=O)N[C@@H](CSC1CC(=O)N(CCC(=O)NCCOCCOCCNC(=O)CCCC[C@@H]2SC[C@@H]3NC(=O)N[C@@H]32)C1=O)C(=O)N[C@@H](C)C(=O)O)[C@@H](C)O)[C@@H](C)CC` (stereo partly shown) [Clone 10V1-C7A, XATKTNAKREKTXDNHVTIXRSIPWYTYRWLPN] was tested, and the Kd was 4.4 nM.

— US11345912B2, “Directed evolution of multivalent glycopeptides that tightly bind to target proteins” (Brandeis University, priority 2013, dated 2022)
